Reference: US20260114449A1, “CONCENTRATED ANTIMICROBIAL SOLUTIONS CONTAINING SPARINGLY SOLUBLE ANTIMICROBIAL AGENTS” (Virox Technologies Inc., priority 2023, published 2026)

Assay: Solubility of salicylic acid in concentrated solution
Format: physicochemical
Method: Solutions 18-22 consisting of a solvent (Tamisolve NxG), a sparingly soluble antimicrobial agent (salicylic acid), and an antimicrobial surfactant (Biosoft S-101 LS) were prepared and are summarized in Table 3.
Solution 42 was prepared and visually inspected at the time of preparation, after 24 hours of storage at room temperature, and after one cycle of freezing and thawing.

- amount of salicylic acid effectively solubilized (Solution 42: Tamisolve NxG 35 wt. %, Biosoft S-101 LS 45 wt. %): 20 wt. %
- maximum amount of salicylic acid that was solubilized (Table 3 solutions: Tamisolve NxG 23.54 wt. % plus Biosoft S-101 LS): 13 wt. %
- solubility of salicylic acid relative to its solubility in water (in Solution 42): about 83 times
SMILES: O=C(O)c1ccccc1O [salicylic acid, Salicylic acid]
